# Values quoted from earlier work in patent US6605646B2, “Vitamin supplement composition” (Upsher-Smith Laboratories, Inc., priority 1995, dated 2003).
# Details: grain fortification, elderly adults
smiles,measurement,value
"Nc1nc2ncc(CNc3ccc(C(=O)N[C@@H](CCC(=O)O)C(=O)O)cc3)nc2c(=O)[nH]1 [folic acid, pteroylglutamic acid]",serum folate,increased serum folate
same,serum homocysteine,decreased serum homocysteine
